Assay results: US9534059B2, “TIKI inhibitors” (Children's Medical Center Corporation, priority 2012, dated 2017)

Experiments:
Format in all cases: in vivo
Tiki1 [1] = molecular target: T1, Tiki1 (Xenopus tropicalis, UniProt F6PTN1); assay: Tiki1MO loss-of-function phenotype scoring in embryos; details: 20 ng into two dorsal blastomeres of 8-cell stage embryos
T1 construct: Thus the endogenous Tiki1 in the Organizer acts in both Wnt-producing and Wnt-responding cells; endogenous in cells; host or cells: Xenopus embryos (dorsal blastomeres / organizer)
T1 sequence (F6PTN1 24-480): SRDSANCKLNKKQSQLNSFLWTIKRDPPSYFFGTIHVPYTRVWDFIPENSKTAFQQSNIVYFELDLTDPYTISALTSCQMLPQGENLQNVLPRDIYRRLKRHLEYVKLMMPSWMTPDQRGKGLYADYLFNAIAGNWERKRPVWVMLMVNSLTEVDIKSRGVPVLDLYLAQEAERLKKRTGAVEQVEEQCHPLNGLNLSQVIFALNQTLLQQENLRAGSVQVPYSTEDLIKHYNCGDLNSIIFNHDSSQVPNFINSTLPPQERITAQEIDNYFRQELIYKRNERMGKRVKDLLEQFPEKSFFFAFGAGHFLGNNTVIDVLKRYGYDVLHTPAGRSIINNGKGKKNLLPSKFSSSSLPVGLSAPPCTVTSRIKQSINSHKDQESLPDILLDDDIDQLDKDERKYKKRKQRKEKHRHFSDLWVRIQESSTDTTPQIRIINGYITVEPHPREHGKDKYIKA
Experimental: 20 ng of control MO, Tiki1MO or Tiki1MO together with 50 pg of HA-Tiki1 mRNA was injected into two dorsal blastomeres at the 8-cell stage and the phenotype was scored at stage 42. Lateral view (left) and dorso-anterior view (right) are shown. Con, control.
(C) Statistical data of the Tiki1MO phenotype.
20 ng of Tiki1MO were injected into two dorsal blastomeres of 8-cell stage embryos. […] Co-injection of HA*Tiki1 mRNA rescued Tiki1MO phenotypes (FIGS. 3B and 3C). Supporting a role of Tiki1 in Wnt inhibition during head formation, Dkk1 mRNA injection also rescued Tiki1MO anterior deficiency phenotypes (FIG. 3E).

Tiki1 [2] = molecular target: T1, Tiki1; assay: Time course of Goosecoid expression in MO-injected embryos, whole mount in situ hybridization (FIG. 3G)
Experimental: (G) Tiki1MO reduced SO-specific Goosecoid expression at stage 11 but not prior to stage 10.5. Time course of Gsc expression was examined between stage 8.5 and 11. 20 ng of Tiki1MO or control MO was injected into two dorsal blastomeres at the 8-cell stage. After Injection embryos were cultured at 22° C. till indicated stages, and were subjected to whole mount in situ hybridization (vegetal view with dorsal up).
(§1) Procedures for embryo manipulation, reverse transcription PCR and in situ hybridization were performed as previously described (Tamai et al., 2000). The arrayed Xenopus tropicalis full length cDNAs (Voigt et al., 2005) were used for the screening as performed previously (Kato et al., 2002). cDNA pools (in the CS107 vector) that contain 96 independent clones were transcribed in vitro using SP6 polymerase, and the resulting mRNA pools were injected into the dorsal side of the embryo at 4-cell stage at the dose of 10 ng RNA/embryo. Injected embryos were scored at stage 30-31 for enlarged or diminished anterior development. The positive pools were divided into smaller pools and the same process was repeated till a single cDNA was identified.
(§2) The following morpholino oligonucleotides were used: Tiki1 MO: 5′-[…]-3′ (SEQ ID NO:33); standard control MO: 5′-[…]-3′ (SEQ ID NO:34) (Gene Tools, LLC). RT-PCR primers for XTiki1: Forward, 5′-[…]-3′(SEQ ID NO:35), Reverse, 5′-[…]-3′(SEQ ID NO:36); human TIKI1: Forward, 5′-[…]-3′(SEQ ID NO:37), Reverse, 5′-[…]-3′(SEQ ID NO:38); human TIKI2: Forward, 5′-[…]-3′(SEQ ID NO:39), Reverse, 5′-[…]-3′(SEQ ID NO:40).
(§3) Further, injection of Tiki1MO in two dorsal blastomeres of 8-cell stage embryos suppressed the expression of head organizer genes including Goosecoid (Gsc), Lim1, Otx2, and Dkk1 in gastrula stage embryos (stages 10.5-11) (FIG. 3D and Table 1). […] HA*Tiki1 mRNA injection rescued the effect of Tiki1MO on all head organizer genes examined (FIG. 3D and Table 1). […] Consistently, Tiki1 inhibited Xwnt8 posterizing effect when both were co-expressed dorsally via injected plasmids, which zygotically express Tiki1 and Xwnt8, respectively, after mid-blastula transition (FIG. 3H).

Tiki1 [3] = molecular target: T1, Tiki1; assay: Whole mount in situ hybridization of organizer gene expression in MO-injected embryos (FIGS. 3D and 3F)
Experimental: (D) Tiki1 is required for the head organizer. Mid-gastrula embryos (stage 10.5-11) were examined by whole mount in situ hybridization.
(F) Tiki1MO reduces Goosecoid expression in prechordal plate at stage 13. 20 ng of control MO, Tiki1MO or Tiki1MO plus 50 pg of HA*Tiki1 mRNA were injected into two dorsal blastomeres at the 8-cell stage. Injected embryos were subjected to whole mount in situ hybridization with the Gsc probe at stage 13 (dorsal view with anterior up).
as §1, §2, §3

[4] = gene Chd, stage 10.5-11, 20 ng MO
[5] = gene Dkk1, stage 10.5-11, 20 ng MO
[6] = gene Gsc in prechordal plate, stage 13, 20 ng MO
[7] = gene Gsc, stage 10.5-11, 20 ng MO
[8] = gene Lim1, stage 10.5-11, 20 ng MO
[9] = gene Otx2, stage 10.5-11, 20 ng MO
[10] = gene Xnot, stage 10.5-11, 20 ng MO
[11] = gene Xnr3, stage 10.5-11, 20 ng MO

## Tiki1 MO: morpholino antisense oligonucleotide against Tiki1, 5′-CCAAATGATTACCATCATAGCTCAG-3′ (SEQ ID NO:33) (all phosphorodiamidate morpholino (PMO))
Tiki1 [1]
  Injected embryos that developed anterior defects: roughly 50%
Tiki1 [2]; stage 8.5, 20 ng MO
  Whole embryos displaying change in Goosecoid expression: Absent, Percentage (%): 0%
  Whole embryos displaying change in Goosecoid expression: NC (No Change), Percentage (%): 100%
  Whole embryos displaying change in Goosecoid expression: Reduced, Percentage (%): 0%
Tiki1 [2]; stage 9.5, 20 ng MO
  Whole embryos displaying change in Goosecoid expression: Absent, Percentage (%): 13%
  Whole embryos displaying change in Goosecoid expression: NC (No Change), Percentage (%): 87%
  Whole embryos displaying change in Goosecoid expression: Reduced, Percentage (%): 0%
Tiki1 [2]; stage 10, 20 ng MO
  Whole embryos displaying change in Goosecoid expression: Absent, Percentage (%): 15%
  Whole embryos displaying change in Goosecoid expression: NC (No Change), Percentage (%): 85%
  Whole embryos displaying change in Goosecoid expression: Reduced, Percentage (%): 0%
Tiki1 [2]; stage 10.5, 20 ng MO
  Whole embryos displaying change in Goosecoid expression: Absent, Percentage (%): 5%
  Whole embryos displaying change in Goosecoid expression: NC (No Change), Percentage (%): 80%
  Whole embryos displaying change in Goosecoid expression: Reduced, Percentage (%): 15%
Tiki1 [2]; stage 11, 20 ng MO
  Whole embryos displaying change in Goosecoid expression: Absent, Percentage (%): 48%
  Whole embryos displaying change in Goosecoid expression: NC (No Change), Percentage (%): 27%
  Whole embryos displaying change in Goosecoid expression: Reduced, Percentage (%): 25%
Tiki1 [3]; [4]
  Whole embryos displaying change in gene expression: Chd Absent, Percentage (%): 0%
  Whole embryos displaying change in gene expression: Chd NC (No Change), Percentage (%): 64%
  Whole embryos displaying change in gene expression: Chd Reduced, Percentage (%): 36%
Tiki1 [3]; [5]
  Whole embryos displaying change in gene expression: Dkk1 Absent, Percentage (%): 25%
  Whole embryos displaying change in gene expression: Dkk1 NC (No Change), Percentage (%): 35%
  Whole embryos displaying change in gene expression: Dkk1 Reduced, Percentage (%): 40%
Tiki1 [3]; [6]
  Whole embryos displaying change in gene expression: Gsc st.13 Absent, Percentage (%): 35%
  Whole embryos displaying change in gene expression: Gsc st.13 NC (No Change), Percentage (%): 33%
  Whole embryos displaying change in gene expression: Gsc st.13 Reduced, Percentage (%): 32%
Tiki1 [3]; [7]
  Whole embryos displaying change in gene expression: Gsc Absent, Percentage (%): 0%
  Whole embryos displaying change in gene expression: Gsc NC (No Change), Percentage (%): 34%
  Whole embryos displaying change in gene expression: Gsc Reduced, Percentage (%): 66%
Tiki1 [3]; [8]
  Whole embryos displaying change in gene expression: Lim1 Absent, Percentage (%): 28%
  Whole embryos displaying change in gene expression: Lim1 NC (No Change), Percentage (%): 18%
  Whole embryos displaying change in gene expression: Lim1 Reduced, Percentage (%): 54%
Tiki1 [3]; [9]
  Whole embryos displaying change in gene expression: Otx2 Absent, Percentage (%): 7%
  Whole embryos displaying change in gene expression: Otx2 NC (No Change), Percentage (%): 33%
  Whole embryos displaying change in gene expression: Otx2 Reduced, Percentage (%): 60%
Tiki1 [3]; [10]
  Whole embryos displaying change in gene expression: Xnot Absent, Percentage (%): 0%
  Whole embryos displaying change in gene expression: Xnot NC (No Change), Percentage (%): 87%
  Whole embryos displaying change in gene expression: Xnot Reduced, Percentage (%): 13%
Tiki1 [3]; [11]
  Whole embryos displaying change in gene expression: Xnr3 Absent, Percentage (%): 0%
  Whole embryos displaying change in gene expression: Xnr3 NC (No Change), Percentage (%): 93%
  Whole embryos displaying change in gene expression: Xnr3 Reduced, Percentage (%): 7%
